PubChem BioAssay AID504898 (Southern Research Specialized Biocontainment Screening …, 2011)
Calls of active or inactive are those of the source. How the calls were made is not given here.

Tests used:
[1] = Confirmatory M tuberculosis H37Rv growth inhibition assay in glycerol free medium (AID 504898); settings: M. tuberculosis H37Rv growth inhibition, glycerol-free medium; at 100 µM (top of the series)
[2] = system: M. tuberculosis H37Rv growth inhibition, glycerol-free medium; assay: as above; settings: for IC50: measured here: M. tuberculosis growth IC50

Structure (SMILES)	growth inhibition [1]	IC90 [2] [µM]	IC50 [2] [µM]
CN(C)C(=O)CSc1nc2ccccc2c(=O)[nH]1	4.4% (inactive)	–	–
Cc1nc(SCC(=O)N(C)c2ccccc2)[nH]c(=O)c1C	-9.33% (inactive)	–	–
Cc1nc(SCC(=O)NC2CCCC2)[nH]c(=O)c1C	–	13.8	9.45
O=C(CSc1nc2ccccc2c(=O)[nH]1)NC1CCCC1	–	0.63	0.27
O=C(CSc1ccccn1)NC1CCCCC1	13.4% (inactive)	–	–
Nc1cc(=O)[nH]c(SCC(=O)NC2CCCCC2)n1	0.56% (inactive)	–	–
O=c1[nH]c(SCc2ccccc2Cl)nc2c1CCCC2	0.45% (inactive)	–	–
CCC(Sc1nc2ccccc2c(=O)[nH]1)C(=O)Nc1cccc(OC)c1 (stereo not given)	-0.61% (inactive)	–	–
O=C(CSc1nc2ccccc2c(=O)[nH]1)NC1CCCCC1	–	0.51	0.36
Cc1cnc(SCC(=O)NC2CCCCC2)[nH]c1=O	-3.1% (inactive)	–	–
CCOc1ccc(-c2cc(C)[n+](CCc3ccc(OC)c(OC)c3)c(-c3ccc(OCC)cc3)c2)cc1	–	1.45	0.72
CN(C(=O)CSc1nc2ccccc2c(=O)[nH]1)C1CCCCC1	2.63% (inactive)	–	–
CCOC1OC(=O)C(Cl)=C1Nc1ccccc1C (stereo not given)	–	5.98	2.98
CCCc1cc(C(N)=S)ccn1	–	–	9.61
NC(=O)CSc1nc2ccccc2c(=O)[nH]1	3.58% (inactive)	–	–
Cc1nc(SCC(=O)NCCC(C)C)[nH]c(=O)c1C	–	13.6	9.38
NC(=O)c1cnccn1	3.35% (inactive)	–	–
O=C(CSc1nc2c(c(=O)[nH]1)CCC2)NC1CCCCC1	–	< 0.1	< 0.065
Cc1cccc(/C=C/C(=O)c2ccc([N+](=O)[O-])o2)c1	–	2.23	1.49
CC(C)N=c1cc2n(-c3ccc(Cl)cc3)c3ccccc3nc-2cc1Nc1ccc(Cl)cc1	–	0.36	0.067
Cc1ccc(NC(=O)CSc2nc3ccccc3c(=O)[nH]2)cc1Cl	-2.52% (inactive)	–	–
COc1cccc(NC(=O)CSc2nc3ccccc3c(=O)[nH]2)c1	-2.5% (inactive)	–	–
CC[N+](C)(CC)CCCCOc1ccc2c(c1)C(=O)c1cc(OCCCC[N+](C)(CC)CC)ccc1-2	–	2.8	1.92

Structure (SMILES)	growth inhibition [1]	IC90 [2] [µM]	IC50 [2] [µM]
Cc1nc(SCC(=O)NC2CCCCC2)[nH]c(=O)c1C	–	9.53	0.13
Cc1[nH]c(=S)[nH]c(=O)c1C	-2.88% (inactive)	–	–
Cc1cc(=O)[nH]c(=S)[nH]1	-2.75% (inactive)	–	–
Cn1c(SCC(=O)NC2CCCCC2)nc2ccccc2c1=O	-3.28% (inactive)	–	–
CC(C)CCNC(=O)CSc1nc2c(c(=O)[nH]1)CCC2	–	2.02	1.37
Cc1cc(Br)ccc1NC(=O)c1cnc(N2CCN(c3ccccn3)CC2)c2ccccc12	–	–	4.32
CC(Sc1nc2ccccc2c(=O)[nH]1)C(=O)NC1CCCCC1 (stereo not given)	-1.37% (inactive)	–	–
COC(=O)C(C)Oc1ccc(Cc2ncc(C(F)(F)F)cc2Cl)cc1 (stereo not given)	–	5.62	3.63
O=C(CSc1nc2ccccc2c(=O)[nH]1)N1CCOCC1	3.26% (inactive)	–	–
COC(=O)c1ccc(CNc2c(N3CCCC3)c(=O)c2=O)cc1	0.74% (inactive)	–	–
Cc1nc(SCc2ccccc2Cl)[nH]c(=O)c1C	-0.81% (inactive)	–	–
CCC(Sc1nc2c(c(=O)[nH]1)CCC2)C(=O)Nc1cccc(OC)c1 (stereo not given)	-0.59% (inactive)	–	–
NNC(=O)c1ccncc1	–	0.46	0.31
CCOC(=O)CSc1nc(C)c(C)c(=O)[nH]1	-0.94% (inactive)	–	–
O=C(CSc1nc2ccccc2c(=O)[nH]1)NCc1ccc(Cl)cc1	–	1.6	1.09
CC1CCN(C(=O)C2CCN(c3nnc(-n4cccc4)s3)CC2)CC1	–	6.19	3.03
COc1cccc(NC(=O)CSc2nc3c(c(=O)[nH]2)CCC3)c1	-9.1% (inactive)	–	–
COc1ccc(NC(=O)CSc2nc3ccccc3c(=O)[nH]2)cc1	1.8% (inactive)	–	–
CN1CCC(NC(=O)CSc2nc3ccccc3c(=O)[nH]2)CC1	-4% (inactive)	–	–
CN[C@@H]1[C@H](O[C@H]2[C@H](O[C@H]3[C@H](O)[C@@H](O)[C@H](N=C(N)N)[C@@H](O)[C@@H]3N=C(N)N)O[C@@H](C)[C@]2(O)C=O)O[C@@H](CO)[C@H](O)[C@H]1O	–	0.18	0.126
CCC(Sc1nc2ccccc2c(=O)[nH]1)C(=O)NC1CCCCC1 (stereo not given)	-0.87% (inactive)	–	–
O=C(CSc1ncccn1)NC1CCCCC1	-3.37% (inactive)	–	–
NC[C@H]1O[C@H](O[C@H]2[C@H](O)[C@@H](O[C@H]3O[C@H](CO)[C@@H](O)[C@H](N)[C@H]3O)[C@H](N)C[C@@H]2N)[C@H](O)[C@@H](O)[C@@H]1O	–	2.42	1.79

Structure (SMILES)	growth inhibition [1]	IC90 [2] [µM]	IC50 [2] [µM]
O=c1[nH]c(=S)[nH]c2ccccc12	-2.86% (inactive)	–	–
CNC(=O)CSc1nc2ccccc2c(=O)[nH]1	–	–	78.2
CC(C)CCNC(=O)CSc1nc2ccccc2c(=O)[nH]1	–	0.28	< 0.11
O=C(CSc1nc2c(c(=O)[nH]1)CCCC2)NC1CCCCC1	–	< 0.11	< 0.057
Cc1[nH]c2ccccc2c1C(=O)COC(=O)c1ccc([N+](=O)[O-])s1	–	–	> 67.1
Cc1c[nH]c(=S)[nH]c1=O	-1.93% (inactive)	–	–
COc1c(N2CCNC(C)C2)c(F)cc2c(=O)c(C(=O)O)cn(C3CC3)c12 (stereo not given)	–	0.14	0.109
CCSc1nc(C)c(C)c(=O)[nH]1	3.43% (inactive)	–	–
Cc1cc(=O)[nH]c(SCC(=O)NC2CCCCC2)n1	-3.3% (inactive)	–	–
O=C(CSc1nccc(=O)[nH]1)NC1CCCCC1	-5.34% (inactive)	–	–
CC(C)NC(=O)CSc1nc2ccccc2c(=O)[nH]1	–	15	9.87
COC(=O)C(Nc1nc(SCC(=O)NC2CCCCC2)nc2ccccc12)c1ccccc1 (stereo not given)	-4.58% (inactive)	–	–
CC1CCN(C(=O)CSc2nc3ccccc3c(=O)[nH]2)CC1	-0.8% (inactive)	–	–
Cc1cc(C)n2nc(N)c(N=Nc3ccccc3)c2n1	–	5.84	4.25
Nc1c(C(=O)NC2CCCCC2)nsc1C(=O)OCC(=O)NC1CCCCC1	–	52.6	6.56
c1ccc(/N=C2\N=C(Nc3ccccn3)c3ccccc32)nc1	–	2.52	1.78
Cc1ccc(C(=O)N/N=C(/CC(=O)c2cccs2)C(F)(F)F)cc1	–	2.9	1.71
Cc1cccc(-c2oc3ccc(-c4ccc5c(c4)OCO5)cc3c2C#Cc2cncn2C)c1	–	3.02	2.61
Cc1ccc(NC(=O)COC(=O)CCc2c[nH]c3ccccc23)cc1[N+](=O)[O-]	–	8.51	2.34
Cc1nc(SCC(N)=O)[nH]c(=O)c1C	3% (inactive)	–	–
CCSc1nc2ccccc2c(=O)[nH]1	-0.83% (inactive)	–	–
